Tests used:
[1] = target: full-length ACE-2 protein (Homo sapiens, UniProt Q9BYF1); assay: BLItz label-free bio-layer interferometry assay; format: binding
Protocol: The ACIS peptide is specifically designed from the part of S-glycoprotein that is conserved only in the coronaviral family. Because of this specificity there is no possibility of any off-target effect. […] Blitz assay was used to confirm the specificity of ACIS peptide towards ACE-2 protein.
The experiment was performed based on manufacturer's instructions. Briefly, biotinylated ACIS peptide was bound to the BLItz streptavidin-linked biosensor. Different doses of ACE-2 enzyme were then charged to the ACIS peptide and then washed.
To further characterize the binding between ACIS and ACE-2, BLItz label-free bio-layer interferometry assay was performed. ACIS (0.25 μg/μL) was loaded to the sensor and titrated with different concentration of ACE-2 protein starting with the concentration as low as 10 nM. […] BLItz sensor was loaded with ACIS peptide (0.25 μg/μL) followed by titration with different concentrations of ACE-2 enzyme starting from nM range.
This can prevent or inhibit the infection of a host cell by SARS-CoV2 virus.

ACE-2 [2] = target: T1, ACE-2 (Homo sapiens, UniProt Q9BYF1); assay: surface plasmon resonance (SPR); conditions: different concentrations of ACIS as analyte; hyperbolic binding curve
T1 sequence (Q9BYF1 18-805): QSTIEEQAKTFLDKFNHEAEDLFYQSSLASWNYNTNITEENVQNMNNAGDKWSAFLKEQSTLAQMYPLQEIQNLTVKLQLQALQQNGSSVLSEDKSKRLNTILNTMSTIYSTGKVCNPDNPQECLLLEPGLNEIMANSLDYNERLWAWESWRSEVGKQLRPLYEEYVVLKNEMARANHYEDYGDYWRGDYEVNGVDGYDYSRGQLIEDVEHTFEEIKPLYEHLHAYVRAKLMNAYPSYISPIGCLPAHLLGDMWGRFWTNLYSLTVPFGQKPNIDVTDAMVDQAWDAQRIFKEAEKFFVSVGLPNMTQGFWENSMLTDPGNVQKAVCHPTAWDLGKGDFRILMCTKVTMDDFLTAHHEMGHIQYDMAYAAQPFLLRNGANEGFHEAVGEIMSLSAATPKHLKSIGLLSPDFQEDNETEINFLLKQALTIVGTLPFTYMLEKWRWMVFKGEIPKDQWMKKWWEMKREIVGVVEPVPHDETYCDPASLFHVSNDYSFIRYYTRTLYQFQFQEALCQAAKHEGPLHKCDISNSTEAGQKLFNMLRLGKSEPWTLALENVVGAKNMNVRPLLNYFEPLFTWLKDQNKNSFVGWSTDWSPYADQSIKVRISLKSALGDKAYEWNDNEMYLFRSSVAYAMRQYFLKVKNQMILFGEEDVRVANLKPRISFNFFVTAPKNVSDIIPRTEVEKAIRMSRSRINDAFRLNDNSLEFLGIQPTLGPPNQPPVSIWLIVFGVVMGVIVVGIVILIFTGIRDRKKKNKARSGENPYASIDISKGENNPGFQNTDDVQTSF

[3] = test system: SARS-CoV2 in VERO E6 cells; assay: dual immunostaining of ACIS peptide and S-glycoprotein in infected VERO cells; format: cell-based; conditions: 25 μM
Protocol: Further confirming the profound activity of KEPTIDE COVIDs in the attenuation of viral infection, a dual immunostaining analyses with ACIS peptide (green) and S-glycoprotein (red) was performed. DAPI staining was carried out to identify big nuclei of VERO cells. […] The result was further corroborated with a quantification study that clearly indicated a strong inhibition of viral load around ACIS-treated VERO cells (***p<0.0001) (FIG. 6B).
In order to evaluate the efficacy of the KEPTIDE COVID in suppressing the secondary or chronic infection of SARS-COV2, testing was performed by dual immunostaining procedure after six hours of viral infection. […] The effect was further confirmed with a quantitative analysis (FIG. 7B).
Double Immunocytochemistry analyses was performed where […] VERO Cells were plated per well in 8-well chamber slide. Cells were starved with serum-free DMEM media for 30 mins followed by the treatment with 25 μM FITC-labeled KEPTIDE COVID. After another 30 mins, unbound KEPTIDE COVIDs were aspirated and then added SARS-CoV2 at a dose of 1-2 PFU/cell. After 2 and 6 hours of virus treatment, viral cells were removed, VERO cells were fixed with 8% PFA and kept at 4° C. for overnight. […]

[4] = test system: SARS-CoV2 (SARS CoV-2 USA_WA1/2020) in VERO cells; assay: Cytopathic effect (agar monolayer invasion) test of supernatants of treated VERO cells; format: cell-based
[5] = target: T2, interaction between S-glycoprotein and ACE-2 protein (Homo sapiens, UniProt Q9BYF1); assay: kit-based luminometric inhibitor screen assay; format: biochemical, SARS-CoV2
T2 construct: purchased
T2 sequence (Q9BYF1 18-740): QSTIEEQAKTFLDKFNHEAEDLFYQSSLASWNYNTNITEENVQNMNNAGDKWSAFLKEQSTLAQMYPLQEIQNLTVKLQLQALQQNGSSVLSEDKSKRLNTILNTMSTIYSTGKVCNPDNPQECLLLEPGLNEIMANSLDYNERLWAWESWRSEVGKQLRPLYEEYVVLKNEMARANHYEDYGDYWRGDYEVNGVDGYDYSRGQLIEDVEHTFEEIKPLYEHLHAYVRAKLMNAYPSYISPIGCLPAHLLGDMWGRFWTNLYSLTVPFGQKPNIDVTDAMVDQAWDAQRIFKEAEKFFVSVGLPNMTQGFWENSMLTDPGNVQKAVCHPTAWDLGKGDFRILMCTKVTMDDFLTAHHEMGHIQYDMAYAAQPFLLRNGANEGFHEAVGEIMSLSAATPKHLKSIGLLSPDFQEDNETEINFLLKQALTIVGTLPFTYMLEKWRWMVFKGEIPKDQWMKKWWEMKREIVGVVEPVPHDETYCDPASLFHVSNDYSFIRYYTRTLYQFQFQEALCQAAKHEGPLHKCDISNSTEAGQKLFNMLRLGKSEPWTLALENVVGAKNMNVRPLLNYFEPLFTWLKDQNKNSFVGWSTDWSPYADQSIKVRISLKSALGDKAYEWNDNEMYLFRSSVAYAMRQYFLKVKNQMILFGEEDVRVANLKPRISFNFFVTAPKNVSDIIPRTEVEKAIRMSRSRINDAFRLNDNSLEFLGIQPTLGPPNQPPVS
Description: A kit-based luminometric inhibitor screen assay was used to evaluate the efficacy of the biotinylated and FITC labeled ACIS in inhibiting the interaction between S-glycoprotein and ACE-2 protein.

[6] = test system: SARS-CoV2 in VERO E6 cells; assay: SARS-CoV2 plaque assay in VERO E6 cells; format: cell-based; conditions: 25 μM pre-incubation 30 mins; compared to control; KEPTIDE1 at 1:20 dilution dose
ACE-2 [7] = target: T1, ACE-2; assay: fluorescence polarization (FP) assay; format: binding; conditions: FITC tag at C-terminal end (FIG. 3C)

full-length ACE-2 protein, sequence (Q9BYF1 18-805): as the sequence (Q9BYF1 18-805) above

Structure (SMILES) | Kd [1] [nM] | minimum concentration with dose-dependent binding ([1]; sensor loaded with ACIS 0.25 μg/μL, titrated with ACE-2) [nM] | interaction with ACE-2 enzyme (binding curve) (ACE-2 [2]) | inhibition of viral particles, secondary or chronic infection ([3]; 6 hours of infection) | inhibition of entry of viral particles, acute infection ([3]; two hours of SARS-CoV2 treatment (1-2 PFU)) | damage of agar monolayer (loss of CV staining) by viral supernatants of treated VERO cells [4] | hillslope of the inhibition plot [5] | increase in protection, densitometric quantification of plaque assay [6] | concentration at which peptide binds with ACE-2 (ACE-2 [7]) [nM]
CC(C)[C@H](NC(=O)CNC(=O)[C@H](CC(N)=O)NC(=O)[C@@H](NC(=O)[C@@H]1CCCN1C(=O)[C@H](CCC(N)=O)NC(=O)[C@@H](N)Cc1ccccc1)[C@@H](C)O)C(=O)NCC(=O)N[C@@H](Cc1ccc(O)cc1)C(=O)N[C@@H](CCC(N)=O)C(=O)N1CCC[C@H]1C(=O)N[C@@H](Cc1ccc(O)cc1)C(=O)NCC(=O)O [ACIS peptide, FQPTNGVGYQPYG] | 115 | 13 | strong interaction with ACE-2 enzyme | continued to repel viral particles significantly from VERO cells | substantially inhibit the entry of viral particles | significant damage in agar monolayer |  |  | 
CC(C)[C@H](NC(=O)CNC(=O)[C@H](CC(N)=O)NC(=O)[C@@H](NC(=O)[C@@H]1CCCN1C(=O)[C@H](CCC(N)=O)NC(=O)[C@@H](N)Cc1ccccc1)[C@@H](C)O)C(=O)NCC(=O)N[C@@H](Cc1ccc(O)cc1)C(=O)N[C@@H](CCC(N)=O)C(=O)N1CCC[C@H]1C(=O)N[C@@H](Cc1ccc(O)cc1)C(=O)NCC(=O)N[C@@H](CCCCNC(=S)Nc1ccc2c(c1)C(=O)OC21c2ccc(O)cc2Oc2cc(O)ccc21)C(=O)O [KEPTIDE2] |  |  |  |  |  |  | −2.4 | three-fold increase in protection | 6.376
